For 10 compounds, Kb results are on record in US10988474B2, “Compounds acting at multiple prostaglandin receptors giving a general anti-inflammatory response” (ALLERGAN, INC., priority 2011, dated 2021).

Each structure is given as a SMILES string.

The term Kb denotes the equilibrium dissociation constant of an antagonist, usually derived from a functional assay.

Holding throughout (format): cell-based
Assay [1] concerns the target T1, human prostanoid IP receptor (Homo sapiens, UniProt P43119).
T1 construct: expressed in transfected cells
Briefly: FLIPR Ca2+ signaling PG antagonist assay, IP stable cell line. The conditions noted are these: HEK-293 EBNA cells, human recombinant IP, no exogenous G-protein; standard agonist Cicaprost. The method in brief: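 HEK-293 EBNA stable lines; EP2 co-expressed with chimeric Gqs, EP1/IP/TP with no exogenous G protein. Fluo-4AM-loaded cells pretreated 4.5 min at 37 °C with compound (0.1–30 μM; TP 0.067–1 μM), then standard agonist (PGE2, cicaprost, U-46619) 10^−11–10^−5 M (TP 10^−12–10^−6 M); peak fluorescence read 3.5 min, nonlinear regression.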

The target of assay [2] is T2, human prostanoid EP4 receptor (Homo sapiens, UniProt P35408).
T2 construct: expressed in transfected cells
T2 sequence (P35408 whole entry): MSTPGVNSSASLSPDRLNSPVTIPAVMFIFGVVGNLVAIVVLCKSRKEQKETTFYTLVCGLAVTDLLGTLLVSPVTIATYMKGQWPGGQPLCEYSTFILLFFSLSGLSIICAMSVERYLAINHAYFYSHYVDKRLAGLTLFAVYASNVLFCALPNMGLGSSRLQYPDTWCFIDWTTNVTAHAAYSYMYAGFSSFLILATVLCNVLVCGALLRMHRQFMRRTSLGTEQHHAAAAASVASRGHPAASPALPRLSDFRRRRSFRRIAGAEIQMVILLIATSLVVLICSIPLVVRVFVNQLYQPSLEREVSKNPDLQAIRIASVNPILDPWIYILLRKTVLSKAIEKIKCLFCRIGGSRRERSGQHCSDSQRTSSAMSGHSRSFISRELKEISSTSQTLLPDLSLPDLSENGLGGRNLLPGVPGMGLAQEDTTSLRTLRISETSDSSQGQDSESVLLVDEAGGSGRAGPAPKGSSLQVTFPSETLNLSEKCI
Description: FLIPR Ca2+ signaling PG antagonist assay, EP4 stable cell line. The conditions noted are these: HEK-293 EBNA cells, human recombinant EP4 with chimeric Gqs; standard agonist PGE2. The method in brief: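 Antagonism at human EP4 was assessed as a Ca^2+ signal in stable HEK-293 EBNA transfectants carrying chimeric Gqs. Dye-loaded cells in HBSS-HEPES at 37° C received test compound, then a 7-point 10-fold PGE2 series. Fluorescence was excited at 470-495 nm and read at 515-575 nm for 3.5 minutes, with each condition run in triplicate and buffer used as the negative control.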

Assay [3] has as its target T3, human prostanoid FP receptor (Homo sapiens, UniProt P43088).
T3 construct: expressed in transfected cells
Description: FLIPR Ca2+ signaling PG antagonist assay, FP stable cell line. Conditions: HEK-293 EBNA cells, human recombinant FP, no exogenous G-protein; standard agonist 17-phenyl-PGF2α. The procedure, abridged:
(§1)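 Stable HEK-293 EBNA lines (DP1 with chimeric Gqs, EP3 with Gqi, EP1 and FP without exogenous G protein) were Fluo-4AM-loaded and pretreated 4.5 min at 37 °C with compound (0.1–30 μM). Agonist (BW 245C for DP1, PGE2 for EP1/EP3, 17-phenyl-PGF2α for FP) was then added at 10^−11–10^−5 M. Peak Ca2+ fluorescence was taken relative to agonist at 10^−6 M.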

The target in assay [4] is T4, human prostanoid DP1 receptor (Homo sapiens, UniProt Q13258).
T4 construct: expressed in transfected cells
T4 sequence (Q13258 1-359): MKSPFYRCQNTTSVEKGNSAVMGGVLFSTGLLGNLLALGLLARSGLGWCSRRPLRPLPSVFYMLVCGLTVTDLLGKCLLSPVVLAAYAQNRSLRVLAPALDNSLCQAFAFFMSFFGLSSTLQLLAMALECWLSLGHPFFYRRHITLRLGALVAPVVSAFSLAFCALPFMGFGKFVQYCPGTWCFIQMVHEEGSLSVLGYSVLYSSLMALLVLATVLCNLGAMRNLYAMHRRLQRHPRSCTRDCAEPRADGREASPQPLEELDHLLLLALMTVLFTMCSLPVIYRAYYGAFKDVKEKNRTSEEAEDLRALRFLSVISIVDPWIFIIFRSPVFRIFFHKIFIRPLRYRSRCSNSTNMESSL
Briefly: FLIPR Ca2+ signaling PG antagonist assay, DP1 stable cell line. Conditions: HEK-293 EBNA cells, human recombinant DP1 with chimeric Gqs; standard agonist BW 245C; read-out: DP (Kb, PG antagonist activity). The procedure, abridged: as §1

The target in assay [5] is T5, human prostanoid EP3 receptor (Homo sapiens, UniProt P43115).
T5 construct: expressed in transfected cells
T5 sequence (P43115 1-390): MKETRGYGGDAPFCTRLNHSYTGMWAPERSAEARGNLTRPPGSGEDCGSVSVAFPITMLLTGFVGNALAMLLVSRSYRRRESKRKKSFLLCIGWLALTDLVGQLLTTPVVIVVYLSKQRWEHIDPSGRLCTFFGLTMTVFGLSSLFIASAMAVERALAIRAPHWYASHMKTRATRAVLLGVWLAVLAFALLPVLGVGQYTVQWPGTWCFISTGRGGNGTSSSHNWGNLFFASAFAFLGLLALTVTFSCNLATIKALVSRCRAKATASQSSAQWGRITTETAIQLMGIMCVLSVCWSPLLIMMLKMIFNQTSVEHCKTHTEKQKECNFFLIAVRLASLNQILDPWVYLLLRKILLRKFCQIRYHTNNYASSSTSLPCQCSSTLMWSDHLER
Briefly: FLIPR Ca2+ signaling PG antagonist assay, EP3 stable cell line. Conditions: HEK-293 EBNA cells, human recombinant EP3 with chimeric Gqi; standard agonist PGE2. The procedure, abridged:
as §1

T3 sequence (P43088 whole entry): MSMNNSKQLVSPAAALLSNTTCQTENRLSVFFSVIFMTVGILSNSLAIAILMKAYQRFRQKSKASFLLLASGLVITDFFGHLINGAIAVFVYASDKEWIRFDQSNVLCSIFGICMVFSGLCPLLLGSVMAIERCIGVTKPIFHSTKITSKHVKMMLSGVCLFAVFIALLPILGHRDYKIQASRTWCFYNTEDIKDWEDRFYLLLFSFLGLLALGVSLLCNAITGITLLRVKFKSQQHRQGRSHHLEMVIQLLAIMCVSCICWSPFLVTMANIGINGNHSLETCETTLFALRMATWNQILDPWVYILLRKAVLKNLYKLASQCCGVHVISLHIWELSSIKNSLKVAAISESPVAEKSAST
T1 sequence (P43119 whole entry): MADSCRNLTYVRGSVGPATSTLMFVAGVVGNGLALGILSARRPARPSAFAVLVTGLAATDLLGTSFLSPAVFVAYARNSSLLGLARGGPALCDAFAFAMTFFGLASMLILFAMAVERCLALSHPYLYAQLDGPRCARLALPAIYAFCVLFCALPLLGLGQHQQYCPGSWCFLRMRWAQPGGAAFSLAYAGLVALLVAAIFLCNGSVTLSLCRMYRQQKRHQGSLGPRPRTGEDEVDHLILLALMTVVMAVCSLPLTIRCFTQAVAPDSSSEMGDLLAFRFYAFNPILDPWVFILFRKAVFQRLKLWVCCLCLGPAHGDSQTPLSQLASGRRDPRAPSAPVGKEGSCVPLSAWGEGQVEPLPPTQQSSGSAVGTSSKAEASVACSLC

On to `Cc1ccc(OCC(C)C)c(Cn2ncc3cc(C(=O)O)ccc32)n1` [Example 50, 1-(3-Isobutoxy-6-Methyl-Pyridin-2-ylmethyl)-1H-Indazole-5-Carboxylic Acid], for which the Kb in assay [1] is at least 10000 nM; in assay [2] it was 1800 nM; in assay [3] it was 4900 nM; in assay [4], 2400 nM; in assay [5], 7100 nM.
On to `CCC(CC)Oc1ccc(Br)cc1Cn1ncc2cc(C(=O)O)ccc21` [Example 51, 1-[5-Bromo-2-(1-Ethyl-Propoxy)-Benzyl]-1H-Indazole-5-Carboxylic Acid], for which the Kb in assay [1] stood at 1100 nM; in assay [2], 270 nM; in assay [3], 110 nM; in assay [4], 600 nM; in assay [5] it was 2600 nM.
Regarding `CC(C)(C)COc1ccc(Br)cc1Cn1ncc2cc(C(=O)O)ccc21` [Example 52, 1-[5-Bromo-2-(2,2-Dimethyl-Propoxy)-Benzyl]-1H-Indazole-5-Carboxylic Acid], the Kb is at least 10000 nM in assay [1]; 10 nM in assay [2]; 11 nM in assay [3]; 2300 nM in assay [4]; 2100 nM in assay [5].
For `CC(C)(O)COc1ccc(Br)cc1Cn1ncc2cc(C(=O)O)ccc21` [Example 53, 1-[5-Bromo-2-(2-Hydroxy-2-Methyl-Propoxy)-Benzyl]-1H-Indazole-5-Carboxylic Acid], in that order: at least 10000 nM, at least 10000 nM, 230 nM, at least 10000 nM and at least 10000 nM.
Turning to `CC(C)COc1ccc(O)cc1Cn1ncc2cc(C(=O)O)ccc21` [Example 54], the Kb was at least 10000 nM in assay [1]; 2700 nM in assay [2]; 1100 nM in assay [3]; 9900 nM in assay [4]; at least 10000 nM in assay [5].
As to `CC(C)COc1ccc(OCC(F)F)cc1Cn1ncc2cc(C(=O)O)ccc21` [Example 55, 1-[5-(2,2-Difluoro-Ethoxy)-2-Isobutoxy-Benzyl]-1H-Indazole-5-Carboxylic Acid], the Kb is at least 10000 nM in assay [1]; 2100 nM in assay [2]; 40 nM in assay [3]; 1200 nM in assay [4]; at least 10000 nM in assay [5].
In the case of `CC(C)COc1ccc(OC(F)F)cc1Cn1ncc2cc(C(=O)O)ccc21` [Example 56, 1-(5-Difluoromethoxy-2-Isobutoxy-Benzyl)-1H-Indazole-5-Carboxylic Acid], the Kb in assay [1] was determined as 4100 nM; in assay [2] it was 150 nM; in assay [3], 24 nM; in assay [4] it was 1800 nM; in assay [5] it was 8800 nM.
With `CC(C)COc1ccc(Cl)cc1Cn1ncc2cc(C(=O)O)cnc21` [Example 57, 1-(5-Chloro-2-Isobutoxy-Benzyl)-1H-Pyrazolo[3,4-B]Pyridine-5-Carboxylic Acid], the Kb was at least 10000 nM in assay [1]; 1300 nM in assay [2]; 190 nM in assay [3]; 5500 nM in assay [4]; at least 10000 nM in assay [5].
As to `CC(C)COc1ccc(OC(F)(F)F)cc1Cn1ncc2cc(C(=O)O)cnc21` [Example 58, 1-(2-Isobutoxy-5-Trifluoromethoxy-Benzyl)-1H-Pyrazolo[3,4-B]Pyridine-5-Carboxylic Acid], the Kb in assay [1] was at least 10000 nM; in assay [2], 380 nM; in assay [3], 60 nM; in assay [4], 1800 nM; in assay [5] it was 9800 nM.
Turning to `CCC(CC)COc1ccc(Br)cc1Cn1nc(C)c2cc(C(=O)O)cnc21` [Example 59, 1-[5-Bromo-2-(2-Ethyl-Butoxy)-Benzyl]-3-Methyl-1H-Pyrazolo[3,4-B]Pyridine-5-Carboxylic Acid], the Kb in assay [1] was 540 nM; in assay [2], 190 nM; in assay [3], 1300 nM; in assay [4], 520 nM; in assay [5], 5400 nM.
